Source: patent publication US11154476B2, “Synergistic effects of alkanolamine alkylamides and other moisturizing agents” (Akzo Nobel Chemicals International, B.V., priority 2016, dated 2021)

What was measured:
[1] = Dynamic Vapor Sorption (DVS) analysis, equilibrium water absorption; type: physicochemical; settings: DVS at 50% humidity, 25° C., single moisturizing agents / Ex. 1 and 2 products
Experimental: Dynamic Vapor Sorption (DVS) technique was used to measure the moisture intake of a specific compound at certain humidity level. DVS Intrinsic instrument manufactured by Surface Measurement Systems UK Ltd. (London, United Kingdom) was used to measure DVS. The following measurement procedure was used to determine the water vapor absorption of a specific composition.
A uniform aqueous solution of a target composition was made at 50% concentration. About 1.2 to 1.6 mg of the prepared aqueous solution was added to DVS instrument at zero tare balance. The temperature was then set at 25° C. A measurement was performed at 90% humidity to ensure that the sample absorbs the highest level of water in order to minimize the mass transfer barrier during the evaporation process. The dynamics of water absorption was determined by the weight change per minute; with water absorption equilibrium defined as the time at which the weight change per minute was less than 0.005% of the sample weight. The equilibrium weight at 0% humidity is the sample weight by itself. Thus, the percentage of equilibrium water absorption at various humidity levels was calculated.
Using the above procedure, DVS was used to evaluate water absorption for compositions comprising DGA Acetamide, other moisturizing agents, and combinations of DGA Acetamide and various additional moisturizing agents. First, DVS values were obtained at 50% humidity for the DGA acetamide products of Examples 1 and 2 above and other selected moisturizing agents.
Then, 1:1 mixtures based on weight were made of each of the DGA Acetamide products of Examples 1 and 2 above with each of the other four moisturizing agents, where the DGA acetamide product of Example 1 is DGA Acetamide:glycerol (83 wt %:17 wt %) and the DGA acetamide product of Example 2 is substantially 100% DGA acetamide. DVS measurements were taken at 50% humidity, using the same amount of total moisturizing agent. It was expected that the DVS values of the mixtures with the other four moisturizing agents would have been the average of the DVS values of each of the moisturizing agents individually, based on the weight percent of each in the mixture.

[2] = test system: inner forearm of each panelist; assay: Corneometer analysis of test gel formulations, scaled moisturization performance (SMP); type: in vivo; settings: average of 8 panelists, water = 0, glycerol = 1, 22° C., 50% RH; for Corneometer SMP results, 6 hours: 6 hours after single application of gel with 5 wt % active; for Corneometer SMP results, 30 hours: 30 hours after single application of gel with 5 wt % active
Experimental: To prepare a gel formulation, deionized water was added to a 4 oz. tall jar that was set up for mixing using an overhead mixer and a jiffy blade. The water was then mixed at a speed that created a good vortex that nearly reached the bottom of the jar (e.g., about 700 rpm). To this, Carbopol® 940 (cross-linked polyacrylate polymer available from Lubrizol, Wickliffe, Ohio) was slowly added and mixed for at least 15 minutes until homogeneous. Triethanolamine (TEA) was then added and the mixing speed was adjusted overhead to about 200 rpm and continued mixing for about 10 minutes (e.g., product viscosity increased). To this mixture was added 5 wt % of the moisturizing agent, as either a single agent or a combination of agents, followed by 0.5 wt % Glydant™ Plus™ (a preservative available from Lonza, Basel, Switzerland) and the remaining, balance water. Mixing was continued at 200 rpm for about 15-20 minutes. The mixture was then removed from the mixer and the final pH was measured. Prior to analysis, samples were centrifuged at 2000 rpm for 15 minutes to remove suspended air pockets from the gel formulation.
About 30 μl of each test gel formulation was applied once (e.g., in a single application with no additional re-applications) in a circle with diameter of about 3 cm on the inner forearm of each panelist. Moisture levels were measured using a Corneometer® CM 825 (available from CK Industries) prior to application of the test gel formulations, and at 6 hour and 30 hour intervals after application, at a temperature of 22° C. and relative humidity of 50%.
To facilitate more meaningful comparisons of the corneometer data for the different test formulations, the following adjustment were made to minimize the variations in the response of humectant treatment: the moisturization performance for glycerol was defined to be 1, and that for water to be zero, then the scaled moisturization performance (SMP) for a specific moisturizing active was defined as: […]
RActive, Rwater, and Rglycerol were the actual corneometer readings of the test gel formulations comprising the active moisturizing agent(s), water, and glycerol, respectively, for an individual panelist at a specific time after the initial treatment. The overall SMP of each tested activewas then the average of SMP over 8 panelists. […] The SMP values illustrated in FIG. 4 provide narrower standard deviations over 8 panelists when compared to actual corneometer readings in FIG. 3.
Using this procedure, corneometer measurements were taken at 6 hours and 30 hours for hydroxyethyl urea, glycerol, the DGA acetamide:glycerol (83:17 wt %) of Example 1, the DGA Acetamide of Example 2, a 1:1 mixture of the DGA Acetamide of Example 2 with hydroxyethyl urea, and a 1:1 mixture of the DGA Acetmaide of Example 2 with glycerol. Measurements were taken at six hours and 30 hours on eight subjects, and calculated as scaled moisturization performance values.

Row | SMILES | % water absorbed (based on weight of moisturizing agent) [1] | Corneometer SMP results, 6 hours [2] | Corneometer SMP results, 30 hours [2]
1 | CC(=O)NCCOCCO [C, N-acetyl diglycolamine] | 26.9% | 0.80 | 0.92
2 | O=C1CCC(C(=O)[O-])N1.[Na+] (centres unmarked) [E, sodium pyrrolidone carboxylate] | 28.7% | – | –
3 | CC(O)C(=O)[O-].[Na+] (centres unmarked) [F, Sodium lactate] | 35.1% | – | –

Second part, led by results:

Row | % water absorbed (based on weight of moisturizing agent) [1] | SMILES | Corneometer SMP results, 6 hours [2] | Corneometer SMP results, 30 hours [2]
4 | 19.7% | NC(=O)NCCO [A, Hydroxyethyl urea] | 0.91 | 1.03
5 | 27.7% | OCC(O)CO [D, Glycerol] | 1.0 | 1.0
